# Test results: ChEMBL document CHEMBL4373654, “Discovery of (aza)indole derivatives as novel respiratory syncytial virus fusion inhibitors” (Medchemcomm, 2019)
# Calls of active or inactive are those of the source. No cut-off for these calls is given here.
# Tests used:
# [1] = system: Respiratory syncytial virus; assay: Antiviral activity against Respiratory syncytial virus Long infected in HEp-2 cells assessed as reduction in virus induced cytopathic effect measured after 6 days by MTT assay; type: functional, organism-based; conditions: human respiratory syncytial virus, HEp-2, 144 h
# [2] = Cytotoxicity against human Hep2 cells assessed as reduction in cell viability after 6 days by MTT assay; type: cell-based; conditions: HEp-2 cells
# [3] = Therapeutic index, ratio of CC50 for cytotoxicity against human Hep2 cells to EC50 for antiviral activity against Respiratory syncytial virus Long infected in HEp-2 cells; type: toxicity, cell-based; conditions: read-out: Ratio CC50/EC50
# [4] = AUC in ICR mouse at 10 mg/kg, po administered as single dose; type: ADME, organism-based; conditions: in vivo
# [5] = Clearance in ICR mouse at 2 mg/kg, iv or 10 mg/kg, po administered as single dose; type: ADME, organism-based; conditions: in vivo
# [6] = Volume of distribution at steady state in ICR mouse at 2 mg/kg, iv administered as single dose; type: ADME, organism-based; conditions: in vivo, read-out: Vdss
# [7] = Half life in ICR mouse at 10 mg/kg, po administered as single dose; type: ADME, organism-based; conditions: in vivo
# [8] = Oral bioavailability in ICR mouse at 10 mg/kg administered as single dose; type: ADME, organism-based; conditions: in vivo
# [9] = Solubility of compound by LYSA assay; type: physicochemical
# [10] = system: Respiratory syncytial virus; assay: Inhibition of Respiratory syncytial virus Long F protein expressed in Flp-In T-REx 293 cells assessed as cell-cell fusion at 1 nM after 3 days by microscopic analysis; type: cell-based
# [11] = system: Respiratory syncytial virus; assay: Inhibition of Respiratory syncytial virus Long F protein expressed in Flp-In T-REx 293 cells assessed as syncytia formation at 1 nM after 3 days by microscopic analysis; type: cell-based
# [12] = system: Respiratory syncytial virus; assay: Inhibition of Respiratory syncytial virus Long F protein expressed in Flp-In T-REx 293 cells assessed as reduction in syncytia formation at 10 nM after 3 days by microscopic analysis relative to control; type: cell-based
# [13] = AUC in ICR mouse at 25 mg/kg, po administered as single dose; type: ADME, organism-based; conditions: in vivo
# [14] = Clearance in ICR mouse at 5 mg/kg, iv or 25 mg/kg, po administered as single dose; type: ADME, organism-based; conditions: in vivo
# [15] = Volume of distribution at steady state in ICR mouse at 5 mg/kg, iv administered as single dose; type: ADME, organism-based; conditions: in vivo, read-out: Vdss
# [16] = Half life in ICR mouse at 25 mg/kg, po administered as single dose; type: ADME, organism-based; conditions: in vivo
# [17] = Oral bioavailability in ICR mouse at 25 mg/kg administered as single dose; type: ADME, organism-based; conditions: in vivo
Compound,EC50 [1],CC50 at 144 h [2],selectivity ratio [3],other results
CS(=O)(=O)CCn1c(CN2C(=O)C3(CC3)c3ccncc32)cc2c(C#N)cccc21,940 nM,> 100000 nM,> 106,
CS(=O)(=O)CCn1c(CN2C(=O)C3(CC3)c3ccncc32)cc2cccc(Cl)c21,160 nM,86900 nM,543,
CS(=O)(=O)CCn1c(CN2C(=O)C3(CC3)c3ccncc32)cc2ccc(Cl)cc21,4830 nM,59700 nM,12,
CCc1cccc2c1cc(CN1C(=O)C3(CC3)c3ccncc31)n2CCS(C)(=O)=O,220 nM,86800 nM,395,
CS(=O)(=O)CCc1c(Cn2c(=O)n(C3CC3)c3ccncc32)nc2cc(Cl)ccn12,,,,AUC [4]: 315 µg/L/h; clearance [5]: 93.3 mL/min/kg; Vd [6]: 1.29 L/kg; half-life [7]: 1.73 h; bioavailability [8]: 16.9%
C[S+]([O-])CCCn1c(CN2C(=O)C3(CC3)c3ccncc32)cc2cc(Cl)ccc21 (configuration not stated),9 nM,92100 nM,10200,
Cc1cccc2c1cc(CN1C(=O)C3(CC3)c3ccncc31)n2CCS(C)(=O)=O,9 nM,61600 nM,6840,
CS(=O)(=O)CCn1c(CN2C(=O)C3(CC3)c3ccncc32)cc2nc(Cl)ccc21,63 nM,74500 nM,1180,
CS(=O)(=O)CCn1c(CN2C(=O)C3(CC3)c3ccncc32)cc2cc(Cl)ncc21,330 nM,98900 nM,300,
CS(=N)(=O)CCn1c(CN2C(=O)C3(CC3)c3ccncc32)cc2cc(Cl)ccc21 (configuration not stated),7 nM,78300 nM,11200,
CS(=O)(=O)CCn1c(CN2C(=O)C3(CC3)c3cnccc32)cc2cc(Cl)ccc21,200 nM,96800 nM,484,
O=C1N(Cc2cc3cc(Cl)ccc3n2[C@@H]2CCS(=O)(=O)C2)c2cnccc2C12CC2,2 nM,37100 nM,18600,solubility [9]: 2 µg/mL; inhibition [10]: inactive; inhibition [11]: inactive; inhibition [12]: 100%; AUC [13]: 3360 µg/L/h; clearance [14]: 30.2 mL/min/kg; Vd [15]: 2.35 L/kg; half-life [16]: 3.04 h; bioavailability [17]: 24.5%
CS(=O)(=O)CCn1c(CN2C(=O)C3(CC3)c3ccncc32)cc2c(Br)cccc21,14 nM,49900 nM,3560,
COc1cccc2c1cc(CN1C(=O)C3(CC3)c3ccncc31)n2CCS(C)(=O)=O,74 nM,> 100000 nM,> 1350,
CS(=O)(=O)CCn1c(CN2C(=O)C3(CC3)c3ccncc32)cc2c(C(F)(F)F)cccc21,560 nM,> 100000 nM,> 179,
CS(=N)(=O)CCCn1c(CN2C(=O)C3(CC3)c3ccncc32)cc2cc(Cl)ccc21 (configuration not stated),6 nM,68300 nM,11400,
CS(=O)(=O)CCn1c(CN2C(=O)C3(CC3)c3ccncc32)cc2c(Cl)cccc21,1670 nM,> 100000 nM,> 60,
CS(=O)(=O)CCn1c(CN2C(=O)C3(CC3)c3ccncc32)cc2c(F)cccc21,190 nM,> 100000 nM,> 526,
CCS(=O)(=O)CCn1c(CN2C(=O)C3(CC3)c3ccncc32)cc2cc(Cl)ccc21,8 nM,> 100000 nM,> 12500,
CS(=O)(=O)CCn1c(CN2C(=O)C3(CC3)c3ccncc32)cc2cc(Cl)cnc21,26 nM,41700 nM,1600,solubility [9]: 5 µg/mL; AUC [13]: 10200 µg/L/h; clearance [14]: 23.7 mL/min/kg; Vd [15]: 0.845 L/kg; half-life [16]: 0.7 h
CS(=O)(=O)CCn1c(CN2C(=O)C3(CC3)c3cccnc32)cc2cc(Cl)ccc21,170 nM,> 100000 nM,> 588,
CS(=O)(=O)CCCn1c(CN2C(=O)C3(CC3)c3ccncc32)cc2cc(Cl)ccc21,3 nM,38600 nM,12900,
CCS(=O)(=O)CCCn1c(CN2C(=O)C3(CC3)c3ccncc32)cc2cc(Cl)ccc21,3 nM,51200 nM,17100,
CS(=O)(=O)CCn1c(CN2C(=O)C3(CC3)c3ccncc32)cc2cc(Cl)ccc21,18 nM,67400 nM,3740,solubility [9]: 17 µg/mL; AUC [13]: 1550 µg/L/h; clearance [14]: 54.2 mL/min/kg; Vd [15]: 1.38 L/kg; half-life [16]: 0.64 h
CS(=O)(=O)CCCCn1c(CN2C(=O)C3(CC3)c3ccncc32)cc2cc(Cl)ccc21,6 nM,> 100000 nM,> 16700,
CS(=O)(=O)CCn1c(CN2C(=O)C3(CC3)c3ccncc32)cc2ccccc21,220 nM,77500 nM,352,
O=C1N(Cc2cc3cc(Cl)ccc3n2[C@H]2CCS(=O)(=O)C2)c2cnccc2C12CC2,9 nM,42500 nM,4720,
